“Also recorded” adds a separate entry of the source. Like-named read-outs stand apart in the source and are kept apart here. Peptide text beside a SMILES is read from it. * marks the point of attachment. Palmitoyl = CCCCCCCCCCCCCCCC(=O)*
Legend:
hUT [1] = target: T1, hUT (Homo sapiens, UniProt Q9UKP6); assay: G12 activation, BRET biosensor, HEK 293-hUT cells; format: cell-based; design: expressed in transfected cells
T1 sequence (Q9UKP6 1-389): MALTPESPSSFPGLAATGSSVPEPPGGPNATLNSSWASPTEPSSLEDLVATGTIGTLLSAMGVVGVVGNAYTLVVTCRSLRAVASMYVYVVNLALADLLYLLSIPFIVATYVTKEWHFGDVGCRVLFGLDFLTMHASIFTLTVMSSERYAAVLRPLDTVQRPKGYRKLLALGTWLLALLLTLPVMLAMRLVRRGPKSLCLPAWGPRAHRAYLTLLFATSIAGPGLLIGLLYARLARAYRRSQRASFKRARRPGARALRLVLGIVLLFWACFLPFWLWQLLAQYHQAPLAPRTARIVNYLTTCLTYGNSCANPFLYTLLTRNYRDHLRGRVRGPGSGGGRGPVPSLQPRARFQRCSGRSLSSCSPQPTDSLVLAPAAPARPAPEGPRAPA
Description: Figure 6 Signaling signature of hUT-pepducins following hUT receptor activation. […] Each curve represents mean ± SEM of at least three independent concentration-response experiments performed in triplicate.
(§1) HEK 293-hUT cells were grown in DMEM culture media supplemented with 10% foetal bovine serum, HEPES, sodium pyruvate, and G418 (200 μg mL^−1). Passages were performed when cells reached 80% of confluency. Cells were initially plated in 96-well plates at a density of 10,000 cells/well. […] Then, to evaluate Gq and G12 activation, 10 μl of a 1/20 dilution (diluted before use) of coelenterazine 400A (stock at 1 mM in ethanol) in Kreb's buffer and 10 μl of the 10× appropriate concentration of peptide were added, and the luminescence was evaluated with an Infinite M1000 PRO. […] Readings were performed after 5 min using an Infinite M1000 PRO. […] BRET ratio was determined by calculating the ratio of the light emitted by GFP10 over the light emitted by the RlucII.

rat thoracic aorta rings = target: T2, rat thoracic aorta rings (Rattus norvegicus, UniProt P49684); assay: Modulation of URP-mediated rat aortic ring contraction; conditions: pepducin 10^−6 M 30 min prior to URP, percentage of KCl (40 mM) contraction divided by tissue response to URP (10^−6 M), mean ± SEM, n = 5, read-out: URP Emax after pepducin pretreatment
T2 sequence (P49684 1-386): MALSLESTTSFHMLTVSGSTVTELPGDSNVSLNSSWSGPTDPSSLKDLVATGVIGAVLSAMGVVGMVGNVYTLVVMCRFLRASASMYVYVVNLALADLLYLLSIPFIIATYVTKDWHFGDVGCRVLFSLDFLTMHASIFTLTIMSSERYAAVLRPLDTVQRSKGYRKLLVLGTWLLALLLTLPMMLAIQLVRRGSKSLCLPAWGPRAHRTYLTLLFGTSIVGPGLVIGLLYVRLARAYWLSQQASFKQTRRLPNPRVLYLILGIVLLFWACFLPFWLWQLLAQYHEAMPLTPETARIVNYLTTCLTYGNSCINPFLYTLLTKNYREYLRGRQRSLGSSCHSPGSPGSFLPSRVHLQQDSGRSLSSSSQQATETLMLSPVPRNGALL
Description: Each replicate (n) was conducted on tissue obtained from at least three different animals. Data represent mean ± SEM.
Adult male Sprague-Dawley rats (Charles-River) weighing 250–300 g were housed in cages under controlled illumination (12:12 h light–dark cycle), humidity, and temperature (21–23 °C) and had free access to tap water and rat chow. All experimental procedures were performed in accordance with regulations and ethical guidelines from the Canadian Council for the Care of Laboratory Animals and received approvals of the institutional animal care and use committee of the Institut National de la Recherche Scientifique—Centre Armand-Frappier Santé Biotechnologie. As previously described ([17], [18]), the thoracic aorta was cleared of surrounding tissue and then excised from the aortic arch to the diaphragm. Conjunctive tissues were next removed from the thoracic aorta and the vessels were divided into five rings of 4 mm. The endothelium of each aortic ring was removed by gently rubbing the vessel intimal surface. Aortic rings were then placed in a 5 ml organ bath filled with oxygenated normal Krebs–Henseleit buffer. Eighty microliters of a 2.5 M potassium chloride solution (40 mM final concentration) was used to evaluate maximal contractile responses of each vessel. […] Cumulative concentration–response curves to synthetic peptides were obtained by increasing the concentration of each peptide in the remaining organ chambers (10^−11–10^−5 M).

hUT [2] = target: T1, hUT; assay: ERK1/2 phosphorylation, BRET-based biosensor, HEK 293-hUT cells; format: cell-based; design: expressed in transfected cells; conditions: concentration-response
Description: as §1, with “cells/well. The following day, the medium is replaced with DMEM culture media supplemented with 2.5% foetal bovine serum (FBS), and 12 h later, cells were transiently transfected with 25 ng/well of a Gq-polycistronic, 25 ng/well of a G12-polycistronic BRET sensor, 25 ng/well of a G13-polycistronic BRET sensor, 2.5 ng/well pIRESB RLucII-ERK-NLS-GFP BRET sensor, 2.5 ng β-arrestin 1-polycistronic BRET sensor, or 2.5 ng β-arrestin 2-polycistronic BRET sensor using Lipofectamine2000 at a ratio of 3:1 (Lipofectamine/plasmid DNA) in serum-free Opti-MEM ([44], [81]).” for “cells/well.”, “RlucII. […]” for “RlucII.”

CC(C)[C@H](NC(=O)[C@@H]1CSSC[C@H](NC(=O)[C@H](CC(=O)O)NC(=O)[C@@H]2CCCN2C(=O)[C@@H](NC(=O)[C@@H](N)CCC(=O)O)[C@@H](C)O)C(=O)N[C@@H](Cc2ccccc2)C(=O)N[C@@H](Cc2c[nH]c3ccccc23)C(=O)N[C@@H](CCCCN)C(=O)N[C@@H](Cc2ccc(O)cc2)C(=O)N1)C(=O)O [hUII, urotensin II, reference compound]
Emax at 1 µM (hUT [1]; read-out: G12 activation Emax): 98 ± 3%

CCCCCCCCCCCCCCCC(=O)N[C@@H](Cc1c[nH]c2ccccc12)C(=O)N[C@@H](CC(C)C)C(=O)N[C@@H](CO)C(=O)N[C@@H](CCC(N)=O)C(=O)N[C@@H](CCCNC(=N)N)C(=O)N[C@@H](C)C(=O)N[C@@H](CO)C(=O)N[C@@H](Cc1ccccc1)C(=O)N[C@@H](CCCCN)C(=O)N[C@@H](CCCNC(=N)N)C(=O)N[C@@H](C)C(=O)N[C@@H](CCCNC(=N)N)C(=O)N[C@@H](CCCNC(=N)N)C(N)=O [[Trp^1, Leu^2]hUT-Pep3] (Palmitoyl-WLSQRASFKRARR-NH2)
Emax (rat thoracic aorta rings): 16 ± 2%
ERK1/2 phosphorylation (BRET) versus hUII (hUT [2]): lower potency and efficacy than hUII
Emax at 1 µM (hUT [1]; read-out: G12 activation, maximum efficacy at 10^−6 M): 5%

CCCCCCCCCCCCCCCC(=O)N[C@@H](CCCNC(=N)N)C(=O)N1CCC[C@H]1C(=O)N[C@@H](CC(C)C)C(=O)N[C@@H](CC(=O)O)C(=O)N[C@H](C(=O)N[C@H](C(=O)N[C@@H](CCC(N)=O)C(=O)N[C@@H](CCCNC(=N)N)C(=O)N1CCC[C@H]1C(=O)N[C@@H](CCCCN)C(=O)NCC(=O)N[C@@H](Cc1ccc(O)cc1)C(N)=O)C(C)C)[C@@H](C)O [hUT-Pep2] (Palmitoyl-RPLDTVQRPKGY-NH2)
Emax (rat thoracic aorta rings): 76 ± 8%
ERK1/2 phosphorylation (BRET) versus hUII (hUT [2]): lower potency and efficacy than hUII; also recorded: partial agonist

From paper PMC8424217 (The Journal of Biological Chemistry, 2021)
